Test system: potato leafhopper (Empoasca fabae Harris)
Assay: Test D: control of potato leafhopper on bean plant, contact and/or systemic
Format: in vivo
Settings: sprayed at 50 ppm, 18 to 21 day old adults on Longio bean plant, 6 days, 19-21° C., 50-70% relative humidity, read-out: pest control: mortality
Method: Test compounds were formulated using a solution containing 10% acetone, 90% water and 300 ppm X-77™ Spreader Lo-Foam Formula non-ionic surfactant containing alkylarylpolyoxyethylene, free fatty acids, glycols and isopropanol (Loveland Industries, Inc. Greeley, Colo., USA). The formulated compounds were applied in 1 mL of liquid through a SUJ2 atomizer nozzle with ⅛ JJ custom body (Spraying Systems Co. Wheaton, Ill., USA) positioned 1.27 cm (0.5 inches) above the top of each test unit. All experimental compounds in these tests were sprayed at 250 ppm replicated three times. After spraying of the formulated test compound, each test unit was allowed to dry for 1 h and then a black, screened cap was placed on top. The test units were held for 6 days in a growth chamber at 25° C. and 70% relative humidity. Plant feeding damage was then visually assessed based on foliage consumed.
For evaluating control of potato leafhopper (Empoasca fabae Harris) through contact and/or systemic means, the test unit consisted of a small open container with a 5-6-day old Longio bean plant (primary leaves emerged) inside. White sand was added to the top of the soil and one of the primary leaves was excised prior to application. […] Each test unit was then visually assessed for insect mortality.

## O=C(NCC(F)(F)F)c1cnc(C2=NOC(c3cc(Cl)cc(Cl)c3)(C(F)(F)F)C2)nc1C(F)(F)F (centres unmarked) [Compound 10, 2-[5-(3,5-dichlorophenyl)-4,5-dihydro-5-(trifluoromethyl)-3-isoxazolyl]-N-(2,2,2-trifluoroethyl)-4-(trifluoromethyl)-5-pyrimidinecarboxamide]
  mortality at 50 ppm: ≥ 80%

## O=C(NCc1ccccn1)c1cnc(C2=NOC(c3cc(Cl)cc(Cl)c3)(C(F)(F)F)C2)nc1C(F)(F)F (centres unmarked) [Compound 7, 2-[5-(3,5-dichlorophenyl)-4,5-dihydro-5-(trifluoromethyl)-3-isoxazolyl]-N-(2-pyridinylmethyl)-4-(trifluoromethyl)-5-pyrimidinecarboxamide]
  mortality at 50 ppm: ≥ 80%

From patent publication US20090143410A1, “Isoxazolines for Controlling Invertebrate Pests” (priority 2005, published 2009)
